Reference: paper PMC11887051, “Discovery of ONO-2920632 (VU6011887): A Highly Selective and CNS Penetrant TREK-2 (TWIK-Related K+ Channel 2) Preferring Activator In Vivo Tool Compound” (ACS Chemical Neuroscience, 2025)
Each block holds one molecule with its values, some of them ahead of it.

Key:
[1] = target: T1, TREK-1 (Homo sapiens, UniProt O95069); assay: manual patch clamp (MPC) assay, TREK-1, species not stated; type: cell-based
T1 sequence (O95069 1-426): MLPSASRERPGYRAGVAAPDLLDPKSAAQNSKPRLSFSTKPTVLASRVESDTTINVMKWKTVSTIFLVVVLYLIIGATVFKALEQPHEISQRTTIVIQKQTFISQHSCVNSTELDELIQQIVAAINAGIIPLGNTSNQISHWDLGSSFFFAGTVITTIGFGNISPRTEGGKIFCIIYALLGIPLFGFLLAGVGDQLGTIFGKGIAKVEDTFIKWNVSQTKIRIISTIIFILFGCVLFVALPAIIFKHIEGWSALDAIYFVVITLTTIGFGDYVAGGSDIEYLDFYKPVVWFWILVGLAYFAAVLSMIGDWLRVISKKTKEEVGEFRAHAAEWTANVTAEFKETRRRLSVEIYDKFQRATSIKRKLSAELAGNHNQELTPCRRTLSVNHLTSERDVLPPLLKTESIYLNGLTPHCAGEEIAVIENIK

[2] = test system: 72 GPCRs, ion channels and transporters; assay: Eurofins Lead Profiling panel (whole panel); type: binding; details: for ancillary pharmacology panel result: 72 GPCRs, ion channels and transporters
[3] = target: Adenosine A2A (Homo sapiens, UniProt P29274); assay: Eurofins Lead Profiling radioligand binding; details: title: 30 μM
[4] = target: Adrenergic α1B (Rattus norvegicus, UniProt P15823); assay: Eurofins Lead Profiling radioligand binding; details: title: 30 μM
Chain of Adrenergic α1B (P15823 whole entry): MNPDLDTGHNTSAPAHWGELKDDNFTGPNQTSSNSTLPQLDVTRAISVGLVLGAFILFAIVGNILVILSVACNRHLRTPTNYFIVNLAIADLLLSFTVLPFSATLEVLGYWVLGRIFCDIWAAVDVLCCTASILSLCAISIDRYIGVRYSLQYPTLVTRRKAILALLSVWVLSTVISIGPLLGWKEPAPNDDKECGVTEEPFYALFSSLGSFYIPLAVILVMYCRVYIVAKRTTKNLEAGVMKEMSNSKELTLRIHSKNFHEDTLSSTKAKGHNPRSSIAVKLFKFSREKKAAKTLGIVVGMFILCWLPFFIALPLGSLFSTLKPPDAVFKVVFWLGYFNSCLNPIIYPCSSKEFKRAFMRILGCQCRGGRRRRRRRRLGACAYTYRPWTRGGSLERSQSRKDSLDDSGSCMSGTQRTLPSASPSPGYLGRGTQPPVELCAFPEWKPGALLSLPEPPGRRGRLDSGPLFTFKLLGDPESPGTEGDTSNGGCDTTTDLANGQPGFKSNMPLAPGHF

[5] = target: Adrenergic α1D (Homo sapiens, UniProt P25100); assay: Eurofins Lead Profiling radioligand binding; details: title: 30 μM
[6] = target: Adrenergic α2A (Homo sapiens, UniProt P08913); assay: Eurofins Lead Profiling radioligand binding; details: title: 30 μM
Chain of Adrenergic α2A (P08913 whole entry): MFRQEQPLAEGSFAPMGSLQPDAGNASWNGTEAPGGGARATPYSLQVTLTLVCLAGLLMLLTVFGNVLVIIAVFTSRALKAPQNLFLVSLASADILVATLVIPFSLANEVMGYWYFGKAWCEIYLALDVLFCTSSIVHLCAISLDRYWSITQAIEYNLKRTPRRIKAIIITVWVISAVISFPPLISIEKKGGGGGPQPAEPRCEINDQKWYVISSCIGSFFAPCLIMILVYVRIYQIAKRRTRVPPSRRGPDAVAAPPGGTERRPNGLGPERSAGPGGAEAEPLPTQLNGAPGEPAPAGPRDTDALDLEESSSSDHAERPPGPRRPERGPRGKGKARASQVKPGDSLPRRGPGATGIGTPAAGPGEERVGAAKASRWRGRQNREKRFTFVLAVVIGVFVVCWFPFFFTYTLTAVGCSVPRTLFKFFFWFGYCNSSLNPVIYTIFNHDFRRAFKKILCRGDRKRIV

[7] = test system: Calcium Channel L-Type, Benzothiazepine; assay: Eurofins Lead Profiling radioligand binding; set-up: species or system Rat; details: title: 30 μM
[8] = target: Dopamine D2S (Homo sapiens, UniProt P14416); assay: Eurofins Lead Profiling radioligand binding; details: title: 30 μM
[9] = target: Dopamine D4.2 (Homo sapiens, UniProt P21917, DEL265-296); assay: Eurofins Lead Profiling radioligand binding; details: title: 30 μM
[10] = target: Estrogen ERα (Homo sapiens, UniProt P03372); assay: Eurofins Lead Profiling radioligand binding; details: title: 30 μM
Chain of Estrogen ERα (P03372 whole entry): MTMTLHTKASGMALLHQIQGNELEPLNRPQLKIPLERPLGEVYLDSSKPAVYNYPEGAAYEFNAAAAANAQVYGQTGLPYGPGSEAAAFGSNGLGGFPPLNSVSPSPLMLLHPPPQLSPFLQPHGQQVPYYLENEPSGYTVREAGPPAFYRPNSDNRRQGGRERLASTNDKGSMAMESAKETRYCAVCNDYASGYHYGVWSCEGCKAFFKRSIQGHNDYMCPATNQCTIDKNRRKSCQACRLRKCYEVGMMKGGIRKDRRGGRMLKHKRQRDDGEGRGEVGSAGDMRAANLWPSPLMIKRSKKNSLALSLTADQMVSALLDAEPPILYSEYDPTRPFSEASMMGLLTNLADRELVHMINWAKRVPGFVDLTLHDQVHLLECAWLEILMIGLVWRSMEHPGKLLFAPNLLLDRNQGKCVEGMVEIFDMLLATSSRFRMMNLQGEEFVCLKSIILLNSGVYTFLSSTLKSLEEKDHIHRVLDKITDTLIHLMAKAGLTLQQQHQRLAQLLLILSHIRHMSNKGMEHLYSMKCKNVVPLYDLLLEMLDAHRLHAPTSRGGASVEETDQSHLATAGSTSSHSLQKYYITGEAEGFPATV

[11] = test system: GABAA, Flunitrazepam, Central; assay: Eurofins Lead Profiling radioligand binding; set-up: species or system Rat; details: title: 30 μM
[12] = target: GABAB1A (Homo sapiens, UniProt Q9UBS5); assay: Eurofins Lead Profiling radioligand binding; details: title: 30 μM
[13] = target: Histamine H1 (Homo sapiens, UniProt P35367); assay: Eurofins Lead Profiling radioligand binding; details: title: 30 μM
[14] = target: Histamine H2 (Homo sapiens, UniProt P25021); assay: Eurofins Lead Profiling radioligand binding; details: title: 30 μM
Chain of Histamine H2 (P25021 whole entry): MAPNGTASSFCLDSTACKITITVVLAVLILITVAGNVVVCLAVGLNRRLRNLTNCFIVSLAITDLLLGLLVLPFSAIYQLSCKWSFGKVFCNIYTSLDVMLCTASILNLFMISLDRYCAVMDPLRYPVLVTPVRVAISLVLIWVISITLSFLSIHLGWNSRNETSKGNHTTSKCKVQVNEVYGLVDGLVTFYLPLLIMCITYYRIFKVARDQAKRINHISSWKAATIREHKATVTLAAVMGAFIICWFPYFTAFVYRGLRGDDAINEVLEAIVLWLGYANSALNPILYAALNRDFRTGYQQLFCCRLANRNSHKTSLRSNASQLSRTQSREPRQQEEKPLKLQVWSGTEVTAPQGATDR

[15] = target: Interleukin IL-1 R1 (Mus musculus, UniProt P13504); assay: Eurofins Lead Profiling radioligand binding; details: title: 30 μM
[16] = target: Melatonin MT1 (Homo sapiens, UniProt P48039); assay: Eurofins Lead Profiling radioligand binding; details: title: 30 μM
[17] = target: Neuropeptide Y Y1 (Homo sapiens, UniProt P25929); assay: Eurofins Lead Profiling radioligand binding; details: title: 30 μM
[18] = target: Nicotinic Acetylcholine α3β4 (Homo sapiens, UniProt P30926+P32297); assay: Eurofins Lead Profiling radioligand binding; details: title: 30 μM
[19] = target: hERG potassium channel (Homo sapiens, UniProt Q12809); assay: Eurofins Lead Profiling radioligand binding; details: title: 30 μM
Chain of hERG potassium channel (Q12809 whole entry): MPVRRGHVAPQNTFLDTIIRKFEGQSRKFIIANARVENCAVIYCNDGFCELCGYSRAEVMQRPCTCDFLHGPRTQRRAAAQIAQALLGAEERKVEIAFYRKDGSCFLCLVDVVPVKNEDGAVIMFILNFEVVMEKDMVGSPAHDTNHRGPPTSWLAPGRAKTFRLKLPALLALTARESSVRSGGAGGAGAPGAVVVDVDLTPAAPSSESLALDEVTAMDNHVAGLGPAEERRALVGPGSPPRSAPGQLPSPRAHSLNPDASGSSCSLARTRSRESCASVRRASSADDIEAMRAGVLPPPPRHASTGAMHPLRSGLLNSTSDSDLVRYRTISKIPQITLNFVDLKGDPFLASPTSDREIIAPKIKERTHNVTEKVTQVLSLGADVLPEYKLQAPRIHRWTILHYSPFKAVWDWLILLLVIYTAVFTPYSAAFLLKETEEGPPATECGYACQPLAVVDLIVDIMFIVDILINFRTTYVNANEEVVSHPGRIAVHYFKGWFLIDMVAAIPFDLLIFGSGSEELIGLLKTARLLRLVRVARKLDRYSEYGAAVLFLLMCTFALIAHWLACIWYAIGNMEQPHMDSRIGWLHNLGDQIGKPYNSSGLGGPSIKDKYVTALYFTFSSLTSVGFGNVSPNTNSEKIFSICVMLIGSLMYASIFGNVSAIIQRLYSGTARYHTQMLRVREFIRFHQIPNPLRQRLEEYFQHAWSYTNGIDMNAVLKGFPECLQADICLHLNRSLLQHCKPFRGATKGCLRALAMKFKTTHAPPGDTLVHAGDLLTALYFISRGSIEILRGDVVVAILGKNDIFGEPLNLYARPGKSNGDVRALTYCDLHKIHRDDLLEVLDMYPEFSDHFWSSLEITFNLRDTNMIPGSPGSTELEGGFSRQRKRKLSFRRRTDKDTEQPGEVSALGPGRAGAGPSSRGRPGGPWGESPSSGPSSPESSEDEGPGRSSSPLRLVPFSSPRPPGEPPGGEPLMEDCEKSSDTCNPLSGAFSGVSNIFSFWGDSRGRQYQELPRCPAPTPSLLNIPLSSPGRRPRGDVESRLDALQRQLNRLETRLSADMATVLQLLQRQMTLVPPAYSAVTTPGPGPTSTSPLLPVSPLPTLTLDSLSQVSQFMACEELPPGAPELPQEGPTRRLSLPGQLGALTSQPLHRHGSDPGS

[20] = test system: Purinergic P2X; assay: Eurofins Lead Profiling radioligand binding; set-up: species or system Rabbit; details: title: 30 μM
[21] = test system: Purinergic P2Y, Non-Selective; assay: Eurofins Lead Profiling radioligand binding; set-up: species or system Rat; details: title: 30 μM
[22] = test system: Rolipram; assay: Eurofins Lead Profiling radioligand binding; set-up: species or system Rat; details: title: 30 μM
[23] = test system: Ryanodine; assay: Eurofins Lead Profiling radioligand binding; set-up: species or system Rat; details: title: 30 μM
[24] = target: Serotonin (5-HT2B) (Homo sapiens, UniProt P41595); assay: Eurofins Lead Profiling radioligand binding; details: title: 30 μM
Chain of Serotonin (5-HT2B) (P41595 whole entry): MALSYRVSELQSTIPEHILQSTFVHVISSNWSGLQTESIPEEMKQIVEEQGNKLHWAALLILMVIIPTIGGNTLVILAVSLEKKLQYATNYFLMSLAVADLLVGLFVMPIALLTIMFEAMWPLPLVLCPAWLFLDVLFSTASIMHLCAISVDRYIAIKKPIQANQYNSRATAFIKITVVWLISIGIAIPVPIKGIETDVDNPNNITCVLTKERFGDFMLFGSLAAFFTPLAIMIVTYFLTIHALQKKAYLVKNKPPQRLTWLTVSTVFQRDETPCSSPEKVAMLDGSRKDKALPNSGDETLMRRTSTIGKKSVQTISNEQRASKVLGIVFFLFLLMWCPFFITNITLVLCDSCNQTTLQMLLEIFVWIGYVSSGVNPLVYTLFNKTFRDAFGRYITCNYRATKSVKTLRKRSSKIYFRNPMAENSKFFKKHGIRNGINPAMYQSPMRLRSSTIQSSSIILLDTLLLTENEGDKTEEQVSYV

[25] = target: Transporter, Dopamine (DAT) (Homo sapiens, UniProt Q01959); assay: Eurofins Lead Profiling radioligand binding; details: title: 30 μM
[26] = target: Transporter, Serotonin (SERT) (Homo sapiens, UniProt P31645); assay: Eurofins Lead Profiling radioligand binding; details: title: 30 μM
Chain of Transporter, Serotonin (SERT) (P31645 whole entry): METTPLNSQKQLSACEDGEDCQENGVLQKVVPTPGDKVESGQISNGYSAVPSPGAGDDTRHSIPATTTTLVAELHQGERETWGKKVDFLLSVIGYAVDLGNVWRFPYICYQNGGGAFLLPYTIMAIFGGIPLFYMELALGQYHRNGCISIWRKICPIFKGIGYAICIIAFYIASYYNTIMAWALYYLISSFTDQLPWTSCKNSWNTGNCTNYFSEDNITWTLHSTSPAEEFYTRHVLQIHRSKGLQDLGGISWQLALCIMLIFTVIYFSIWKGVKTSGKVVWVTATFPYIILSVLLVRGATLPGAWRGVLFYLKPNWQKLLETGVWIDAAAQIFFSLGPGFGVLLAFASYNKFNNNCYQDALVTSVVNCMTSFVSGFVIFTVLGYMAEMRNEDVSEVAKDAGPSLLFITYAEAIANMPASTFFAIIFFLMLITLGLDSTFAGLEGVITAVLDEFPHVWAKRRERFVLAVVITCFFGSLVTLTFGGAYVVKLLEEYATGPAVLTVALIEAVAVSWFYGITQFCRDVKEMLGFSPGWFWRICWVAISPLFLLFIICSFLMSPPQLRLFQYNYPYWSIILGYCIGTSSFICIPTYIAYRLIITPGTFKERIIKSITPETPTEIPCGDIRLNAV

[27] = target: Vanilloid (Rattus norvegicus, UniProt O35433); assay: Eurofins Lead Profiling radioligand binding; details: title: 30 μM
Chain of Vanilloid (O35433 whole entry): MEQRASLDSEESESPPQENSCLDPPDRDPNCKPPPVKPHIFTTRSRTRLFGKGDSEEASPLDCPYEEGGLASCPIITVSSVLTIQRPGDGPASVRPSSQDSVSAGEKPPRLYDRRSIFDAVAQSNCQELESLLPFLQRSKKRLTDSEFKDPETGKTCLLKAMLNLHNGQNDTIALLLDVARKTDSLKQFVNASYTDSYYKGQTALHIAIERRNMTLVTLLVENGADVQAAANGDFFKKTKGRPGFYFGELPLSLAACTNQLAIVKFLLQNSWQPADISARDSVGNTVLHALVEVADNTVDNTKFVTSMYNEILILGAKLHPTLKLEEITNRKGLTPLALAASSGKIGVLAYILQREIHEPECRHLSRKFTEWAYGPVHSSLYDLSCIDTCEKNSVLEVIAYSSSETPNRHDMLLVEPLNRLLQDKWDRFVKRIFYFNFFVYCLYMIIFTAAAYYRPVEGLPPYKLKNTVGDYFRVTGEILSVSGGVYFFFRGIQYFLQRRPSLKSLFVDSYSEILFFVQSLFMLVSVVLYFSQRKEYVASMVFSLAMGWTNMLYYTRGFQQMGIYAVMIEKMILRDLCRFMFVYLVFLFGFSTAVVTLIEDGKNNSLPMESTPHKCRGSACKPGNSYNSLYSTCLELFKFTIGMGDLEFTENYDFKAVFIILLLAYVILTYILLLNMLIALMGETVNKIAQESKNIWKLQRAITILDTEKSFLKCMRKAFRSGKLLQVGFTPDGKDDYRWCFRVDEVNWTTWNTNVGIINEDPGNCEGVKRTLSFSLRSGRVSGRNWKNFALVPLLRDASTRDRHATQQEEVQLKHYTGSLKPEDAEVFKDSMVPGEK

[28] = target: T1, TREK-1; assay: human TREK-1 MPC assay; type: cell-based; set-up: host or cells: CHO
[29] = target: T2, TREK-2 (Homo sapiens, UniProt P57789); assay: human TREK-2 MPC assay; type: cell-based; set-up: expressed in transfected cells; host or cells: HEK293
T2 sequence (P57789 1-538): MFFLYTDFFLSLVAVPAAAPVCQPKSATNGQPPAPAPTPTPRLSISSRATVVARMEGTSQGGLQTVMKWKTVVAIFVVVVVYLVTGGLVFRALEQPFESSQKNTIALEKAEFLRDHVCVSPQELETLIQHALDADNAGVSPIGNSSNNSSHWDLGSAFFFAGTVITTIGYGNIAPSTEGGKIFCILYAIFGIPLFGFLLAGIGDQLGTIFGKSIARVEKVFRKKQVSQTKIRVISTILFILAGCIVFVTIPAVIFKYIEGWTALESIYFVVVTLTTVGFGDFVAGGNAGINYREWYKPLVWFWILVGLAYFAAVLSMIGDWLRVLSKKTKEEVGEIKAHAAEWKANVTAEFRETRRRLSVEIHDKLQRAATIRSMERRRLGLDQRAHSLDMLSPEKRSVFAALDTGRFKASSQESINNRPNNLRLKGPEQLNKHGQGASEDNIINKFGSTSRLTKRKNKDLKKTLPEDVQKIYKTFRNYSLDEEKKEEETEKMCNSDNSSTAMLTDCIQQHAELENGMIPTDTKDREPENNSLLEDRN

- EC50 [1]: 7400 nM
- Emax [1]: 99%
SMILES: CS(=O)(=O)Nc1ccc(C(=O)NCc2ccc(Cl)cc2Cl)cc1 [Compound 13]

SMILES: O=C(NCc1ccc(OC(F)(F)F)cc1F)c1ccc2ncnn2c1 [Compound 19b]
- displacement of any radioligand in the panel ([2]; 30 μM, 72 targets): ≤ 50%
- ancillary pharmacology panel result [2]: clean ancillary pharmacology
- ancillary pharmacology panel result ([2]; listed as ONO-2920632): no significant activity
- inhibition [3]: 10%
- inhibition at 10 µM [4]: 6%
- inhibition at 10 µM [5]: 4%
- inhibition [6]: 3%
- % Inhibition at 10 µM [7]: 2%
- inhibition at 10 µM [8]: 6%
- inhibition [9]: 15%
- inhibition [10]: 1%
- % Inhibition at 10 µM [11]: 0%
- inhibition [12]: -1%
- inhibition [13]: 8%
- inhibition [14]: -20%
- inhibition [15]: 9%
- inhibition [16]: 17%
- inhibition [17]: 2%
- inhibition [18]: -17%
- inhibition [19]: 44%
- % Inhibition at 10 µM [20]: 22%
- % Inhibition at 10 µM [21]: -7%
- % Inhibition at 10 µM [22]: 13%
- % Inhibition at 10 µM [23]: 6%
- inhibition [24]: 14%
- inhibition [25]: 14%
- inhibition [26]: 2%
- inhibition [27]: -8%

- EC50 [28]: 330 nM
- Emax [28]: 172%
- EC50 [29]: 190 nM
- Emax [29]: 142%
SMILES: O=C(NCc1ccc(OC(F)(F)F)cc1Cl)c1ccc2nncn2c1 [Compound 20]
